# From patent US20020137736A1, “Novel compounds” (priority 1999, published 2002)
smiles,measurement,value
"CC(C)Oc1ccc(NC(=N)c2cccs2)cc1CN1CCCC1 [Example 21, N-[4-Isopropoxy-3-(1-pyrrolidinylmethyl)phenyl]-2-thiophenecarboximidamide]",melting point,138 to 140 °C
